pIC50: −log10 of the molar value. Counter-ions that a name gives are not always drawn.
What was measured:
[1] = test system: PC-9 (Δ19del) cells; assay: Anti-PC-9 cell proliferation (Cell-Titer Glo, 72 hours); format: cell-based; conditions: Homo sapiens, PC-9 cells, read-out: Anti-PC-9 (Δ19del) cell proliferative activity IC50
Experimental: RPMI 1640 medium, FBS fetal bovine serum and trypsin-EDTA were purchased from Giboco. DPBS was purchased from Corning, penicillin/streptomycin solution from Hyclone, Cell-Titer Glo reagent from Promega (1 kit, Cat. No. G7571). PC-9 was built by WuXi itself. Plate reader: Envision (Perkin Elmer).
(§1) 45 μL Culture media was added to columns 1, 2, 24 of a 384-well plate, repectively. The cell suspension was separated by Multi-drop, 45 μL (1000 cells) per well, which was placed and cultured in an incubator overnight. A compound was added to the source plate according to the requirement of Echo liquid-separation. The compound in the source plate was added to the interplate and diluted to an intermediate concentration, then the compound in the source plate and the interplate was added to the cell plate, and the cells were further cultured in the incubator for 72 hours. After 72 hours, Cell-Titer Glo reagent and cells were taken out and equilibrated at room temperature for 30 minutes. 25 μL Cell-Titer Glo reagent was separated into the cells in 384-well plate by Multi-drop, shaken at medium speed for 3 minutes, centrifuged at 1000 rpm for 2 minutes, and kept for 10 minutes. Envision was used to read the plate (Luminescence).

[2] = test system: A431 cells; assay: Anti-A431 cell proliferation; format: cell-based; conditions: Homo sapiens, A-431, read-out: Anti-A431 cell proliferative activity IC50
Experimental: as §1

[3] = biological target: EGFR WT (Homo sapiens (Human), UniProt P00533); assay: Kinase assay (HTRF KinEASE TK), wild-type EGFR enzyme; format: biochemical
From the text: (§2) Detection of inhibitory effects of compounds on enzymatic activities of EGFR WT, EGFR [L858R] and EGFR [d746-750]
(§3) EGFR WT (Invitrogen, Cat. No PR7295B), EGFR [L858R] (Invitrogen, Cat. No PR7447A), EGFR [d746-750](Invitrogen, Cat. No PV6179), ATP (Sigma, Cat. No. A7699-1G), DMSO (Sigma, Cat. No. D2650), DTT (Sigma, Cat. No. 43815), 384-well plates compound dilution plates (Greiner, Cat. No. 781280), 384-well plates_test plates (Perkin Elmer, Cat. No. 6007299), HTRF KinEASE TK Kit (Cisbio, Cat. No. 62TKOPEB), MgCl2 (Sigma, Cat. No. M1028), Orthovanadate (Sigma, Cat. No. S6508), BSA (Sigma, Cat. No. A7030), HEPES (Life technology, Cat. No. 11344-041)
(§4) The final test concentrations of the test compounds ranged from 10 μM to 0.17 nM, with serial 3-fold dilutions and 11 gradient concentrations.
(§5) Buffer formulation: a buffer consisted of 50 mM HEPES (pH 7.5), 0.01% BSA, 5 mM MgCl2, 0.1 mM Orthovanadate. After the buffer was formulated, an enzyme and a substrate were mixed with pre-diluted compounds of varying concentrations, and placed at room temperature for 15 minutes. The reaction was initiated by adding ATP and incubated at room temperature for 60 minutes (wherein negative and positive controls were set up). The 10 μL reaction system consisted of a 2.5 μL compound, a 5 μL mixture of enzyme and substrate, and 2.5 μL ATP. After the reaction was complete, antibodies were added to test, the detection was performed with Evnvision after incubation at room temperature for 60 minutes, and data were collected. Data analysis and simulation were performed using XLfit5 software.

[4] = biological target: EGFR [d746-750] (Homo sapiens (Human), UniProt P00533, DEL746-750); assay: Kinase assay (HTRF KinEASE TK), EGFR exon 19 deletion enzyme; format: biochemical
From the text: as §2, §3, §4, §5

[5] = biological target: EGFR [L858R] (Homo sapiens (Human), UniProt P00533, L858R); assay: Kinase assay (HTRF KinEASE TK), EGFR L858R enzyme; format: biochemical
From the text: as §2, §3, §4, §5

Sequence of EGFR [L858R] (P00533 25-1210 L858R): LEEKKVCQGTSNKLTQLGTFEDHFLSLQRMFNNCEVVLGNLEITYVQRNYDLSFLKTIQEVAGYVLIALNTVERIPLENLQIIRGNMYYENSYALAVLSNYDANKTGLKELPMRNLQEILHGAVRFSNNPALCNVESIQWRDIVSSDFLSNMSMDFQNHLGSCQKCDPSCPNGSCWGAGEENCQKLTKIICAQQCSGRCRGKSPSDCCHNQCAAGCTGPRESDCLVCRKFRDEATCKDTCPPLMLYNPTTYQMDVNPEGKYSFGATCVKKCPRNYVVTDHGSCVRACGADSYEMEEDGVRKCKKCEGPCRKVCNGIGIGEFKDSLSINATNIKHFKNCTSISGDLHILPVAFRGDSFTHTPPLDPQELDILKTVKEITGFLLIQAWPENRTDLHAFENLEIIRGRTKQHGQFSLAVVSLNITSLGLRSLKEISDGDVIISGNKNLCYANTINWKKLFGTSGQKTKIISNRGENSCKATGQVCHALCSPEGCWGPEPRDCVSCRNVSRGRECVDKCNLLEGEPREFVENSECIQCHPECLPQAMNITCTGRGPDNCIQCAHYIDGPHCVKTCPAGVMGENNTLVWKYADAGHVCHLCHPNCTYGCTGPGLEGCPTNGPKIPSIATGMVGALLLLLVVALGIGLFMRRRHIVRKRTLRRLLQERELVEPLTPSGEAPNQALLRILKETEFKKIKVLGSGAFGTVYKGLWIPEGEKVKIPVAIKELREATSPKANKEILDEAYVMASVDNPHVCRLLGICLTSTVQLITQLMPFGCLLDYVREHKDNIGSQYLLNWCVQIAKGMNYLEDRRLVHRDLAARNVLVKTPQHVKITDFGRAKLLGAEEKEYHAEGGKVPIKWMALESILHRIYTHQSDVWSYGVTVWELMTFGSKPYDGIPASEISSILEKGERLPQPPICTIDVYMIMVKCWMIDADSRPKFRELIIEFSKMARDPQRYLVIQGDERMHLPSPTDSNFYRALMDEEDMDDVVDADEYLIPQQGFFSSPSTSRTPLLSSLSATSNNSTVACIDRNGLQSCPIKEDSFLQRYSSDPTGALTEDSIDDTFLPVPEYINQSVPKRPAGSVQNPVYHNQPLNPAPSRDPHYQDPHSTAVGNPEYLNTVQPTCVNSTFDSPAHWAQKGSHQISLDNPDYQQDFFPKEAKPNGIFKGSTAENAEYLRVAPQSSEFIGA
Sequence of EGFR WT (P00533 25-1210): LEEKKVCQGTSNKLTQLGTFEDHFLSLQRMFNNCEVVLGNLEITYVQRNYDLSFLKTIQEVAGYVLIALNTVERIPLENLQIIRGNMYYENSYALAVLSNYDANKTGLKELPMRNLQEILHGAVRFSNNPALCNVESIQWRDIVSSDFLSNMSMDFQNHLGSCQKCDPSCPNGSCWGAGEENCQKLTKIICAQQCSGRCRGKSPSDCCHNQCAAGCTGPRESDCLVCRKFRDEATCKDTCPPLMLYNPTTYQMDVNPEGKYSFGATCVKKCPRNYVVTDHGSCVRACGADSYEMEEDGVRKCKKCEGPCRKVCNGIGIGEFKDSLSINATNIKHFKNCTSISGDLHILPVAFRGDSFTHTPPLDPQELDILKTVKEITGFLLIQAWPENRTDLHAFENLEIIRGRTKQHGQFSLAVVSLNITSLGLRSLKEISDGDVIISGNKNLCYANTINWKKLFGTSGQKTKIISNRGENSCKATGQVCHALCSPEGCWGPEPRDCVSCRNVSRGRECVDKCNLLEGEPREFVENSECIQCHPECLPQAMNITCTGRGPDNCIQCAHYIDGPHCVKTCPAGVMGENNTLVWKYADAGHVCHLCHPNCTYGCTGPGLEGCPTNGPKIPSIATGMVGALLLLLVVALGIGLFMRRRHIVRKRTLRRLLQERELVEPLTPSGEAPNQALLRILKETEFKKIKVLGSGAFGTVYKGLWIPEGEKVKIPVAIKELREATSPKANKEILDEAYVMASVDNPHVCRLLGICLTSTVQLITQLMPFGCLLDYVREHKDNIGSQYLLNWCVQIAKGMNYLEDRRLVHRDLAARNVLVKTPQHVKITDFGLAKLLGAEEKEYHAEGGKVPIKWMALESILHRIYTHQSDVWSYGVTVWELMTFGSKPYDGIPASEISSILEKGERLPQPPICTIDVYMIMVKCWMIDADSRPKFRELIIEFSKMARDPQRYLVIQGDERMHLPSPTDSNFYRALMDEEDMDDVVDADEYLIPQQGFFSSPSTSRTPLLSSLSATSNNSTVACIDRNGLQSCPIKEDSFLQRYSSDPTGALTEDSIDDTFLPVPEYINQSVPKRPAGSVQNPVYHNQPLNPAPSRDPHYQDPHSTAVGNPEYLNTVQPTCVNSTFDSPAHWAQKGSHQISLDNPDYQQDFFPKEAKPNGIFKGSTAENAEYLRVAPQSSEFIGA
Sequence of EGFR [d746-750] (P00533 other isoform, or with tags, fused parts or gaps del 1-667/del 746-750 limits assumed): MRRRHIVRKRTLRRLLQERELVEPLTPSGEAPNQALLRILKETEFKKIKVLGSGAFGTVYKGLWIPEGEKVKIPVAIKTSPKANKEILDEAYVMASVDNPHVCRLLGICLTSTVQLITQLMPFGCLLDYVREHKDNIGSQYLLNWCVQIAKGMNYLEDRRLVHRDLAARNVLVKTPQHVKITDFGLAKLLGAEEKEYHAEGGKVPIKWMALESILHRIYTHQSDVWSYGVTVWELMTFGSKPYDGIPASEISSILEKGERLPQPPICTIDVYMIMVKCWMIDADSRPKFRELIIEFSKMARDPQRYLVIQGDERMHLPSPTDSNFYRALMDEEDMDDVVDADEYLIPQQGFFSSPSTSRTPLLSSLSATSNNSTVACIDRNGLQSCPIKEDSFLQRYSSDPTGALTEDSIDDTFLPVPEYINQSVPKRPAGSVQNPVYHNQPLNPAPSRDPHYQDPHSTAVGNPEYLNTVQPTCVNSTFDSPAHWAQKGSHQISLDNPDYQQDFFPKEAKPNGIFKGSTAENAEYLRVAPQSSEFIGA

Structure (SMILES) | pIC50 [1] | pIC50 [2] | pIC50 [3] | pIC50 [4] | pIC50 [5]
COc1cc2ncnc(Oc3cccc(Cl)c3)c2cc1N1CC2(CCN(C)CC2)OC1=O [Compound 16] | 6.27 | – | – | – | –
COc1cc2ncnc(Nc3cccc(Cl)c3F)c2cc1N1C[C@H](CN(C)C)OC1=O [Compound 18] | 7.90 | 7.23 | > 10.82 | 10.30 | –
COC[C@@H]1CN(c2cc3c(Nc4cccc(Cl)c4F)ncnc3cc2OC)C(=O)O1 [Compound 23] | 7.62 | – | 10.42 | 9.77 | –
CCN1CC2(C1)CN(c1cc3c(Nc4cccc(Cl)c4F)ncnc3cc1OC)C(=O)O2 [Compound 25] | 8.17 | 7.19 | 10.66 | 10.16 | –
COc1cc2ncnc(Nc3cccc(Cl)c3F)c2cc1N1CC2(CN(C(C)C)C2)OC1=O [Compound 26] | 8.14 | 7.01 | – | – | –
COc1cc2ncnc(Oc3cccc(Cl)c3)c2cc1N1CC2(CN(C)C2)OC1=O [Compound 27] | 7.08 | – | – | – | –
COc1cc2ncnc(Nc3cccc(Cl)c3F)c2cc1N1CC2(CN(CCF)C2)OC1=O [Compound 29] | 7.83 | – | – | – | –
CN1CC2(C1)CN(c1cc3c(Nc4cccc(Cl)c4F)ncnc3cc1OC(F)F)C(=O)O2 [Compound 45] | 8.05 | – | – | – | –
COc1cc2ncnc(Nc3ccc(F)c(Cl)c3F)c2cc1N1CC2(CN(C)C2)OC1=O [Compound 49] | 8.38 | – | – | – | –
COc1cc2ncnc(Nc3ccc(F)c(Cl)c3)c2cc1N1CC2(CCN(C)CC2)OC1=O [Formate of compound 2] | 6.78 | – | – | 7.78 | 7.32
COc1cc2ncnc(Nc3cccc(Cl)c3F)c2cc1N1CC2(CCN(C)CC2)OC1=O [Formate of compound 3] | 8.52 | 7.02 | – | 10.70 | 10.00
COc1cc2ncnc(Nc3cccc(Cl)c3OC)c2cc1N1CC2(CCN(C)CC2)OC1=O [Formate of compound 4] | 6.40 | – | – | 7.26 | 7.52
COc1cc2ncnc(Nc3cccc(Cl)c3F)c2cc1N1CC2(CCN(C(C)C)CC2)OC1=O [Formate of compound 5] | 8.56 | – | – | – | –
COc1cc2ncnc(Nc3ccc(Cl)c(Cl)c3F)c2cc1N1CC2(CCN(C)CC2)OC1=O [Formate of compound 6] | 8.31 | – | > 10.82 | 10.15 | –
COc1cc2ncnc(Nc3ccc(F)c(Cl)c3F)c2cc1N1CC2(CCN(C)CC2)CC1=O [Formate of compound 10] | 8.22 | 7.14 | – | – | –
CN1CCC2(CC1)CN(c1ccc3ncnc(Nc4cccc(Cl)c4F)c3c1)C(=O)O2 [Formate of compound 12] | 8.04 | 7.34 | 10.77 | 10.07 | –
COc1cc2ncnc(Nc3cccc(Cl)c3F)c2cc1N1CC2(CN(C)C2)OC1=O [Formate of compound 13] | 8.27 | – | 10.80 | 10.28 | –
COc1cc2ncnc(Nc3cccc(Cl)c3F)c2cc1N1CC2(COC2)OC1=O [Formate of compound 15] | 7.64 | – | – | – | –
COc1cc2ncnc(Nc3cccc(Cl)c3F)c2cc1N1C(=O)OC2CN(C)CCC21 (stereo not shown) [Formate of compound 17] | 7.53 | – | – | – | –
COc1cc2ncnc(-n3ccc4c(Cl)cccc43)c2cc1N1CC2(CCN(C)CC2)OC1=O [Formate of compound 19] | 5.89 | – | – | – | –
COc1cc2ncnc(Nc3cccc(Cl)c3F)c2cc1N1CC2(CCN(C)CC2C)OC1=O (stereo not shown) [Formate of compound 20] | 8.66 | – | – | – | –
CCC1CN(C)CCC12CN(c1cc3c(Nc4cccc(Cl)c4F)ncnc3cc1OC)C(=O)O2 (stereo not shown) [Formate of compound 21] | 8.53 | – | – | – | –
Cc1cc2ncnc(Nc3cccc(Cl)c3F)c2cc1N1CC2(CCN(C)CC2)OC1=O [Formate of compound 22] | 7.38 | – | – | – | –
COc1cc2ncnc(Nc3c(F)ccc(Cl)c3F)c2cc1N1CC2(CCN(C)CC2)OC1=O [Formate of compound 24] | 8.12 | – | – | – | –
COc1cc2ncnc(-c3cn(C)c4ccccc34)c2cc1N1CC2(CN(C)C2)OC1=O [Formate of compound 28] | 6.60 | – | – | – | –
CC(C)N1CC2(CN(c3ccc4ncnc(Nc5cccc(Cl)c5F)c4c3)C(=O)O2)C1 [Formate of compound 33] | – | – | 9.94 | 9.54 | –
COc1cc2ncnc(Nc3ccc(Cl)cc3F)c2cc1N1CC2(CN(C)C2)OC1=O [Formate of compound 46] | 7.53 | – | – | – | –
COc1cc2ncnc(Nc3cccc(C)c3F)c2cc1N1CC2(CN(C)C2)OC1=O [Formate of compound 48] | 8.07 | – | – | – | –
CCCN1CC2(C1)CN(c1cc3c(Nc4cccc(Cl)c4F)ncnc3cc1OC)C(=O)O2 [Hydrochloride of compound 30] | 7.95 | 7.15 | 10.68 | 10.28 | –
COc1cc2ncnc(Nc3cccc(Cl)c3F)c2cc1N1CC2(CN(C3CC3)C2)OC1=O [Hydrochloride of compound 31] | 7.82 | – | – | – | –

— patent publication US11040984B2, “Quinazoline compound for EGFR inhibition” (MEDSHINE DISCOVERY INC., priority 2016, dated 2021)
